Data reported in ChEMBL document CHEMBL4840320, “Taccachatrones A-G, Highly Oxidized Steroids from the Rhizomes of Tacca chantrierii and Their Cytotoxicity Assessment” (J Nat Prod, 2021).
Activity calls are given as the source filed them. No cut-off for these calls is given here.

Columns and labels:
Type in all cases: functional, cell-based
HL-60 = assay: Cytotoxicity against human HL-60 cells assessed as reduction in cell viability measured after 48 hrs by MTT assay; conditions: for IC50: HL-60, 48 h
A549 = assay: Cytotoxicity against human A549 cells assessed as reduction in cell viability measured after 48 hrs by MTT assay; conditions: for IC50: A549, 48 h
MCF7 = assay: Cytotoxicity against human MCF7 cells assessed as reduction in cell viability measured after 48 hrs by MTT assay; conditions: for IC50: MCF7, 48 h
SW480 = assay: Cytotoxicity against human SW480 cells assessed as reduction in cell viability measured after 48 hrs by MTT assay; conditions: for IC50: SW480, 48 h

Structure (SMILES) | Activity (HL-60) | Activity (A549) | Activity (MCF7) | Activity (SW480) | IC50 (HL-60) [µM] | IC50 (A549) [µM] | IC50 (MCF7) [µM] | IC50 (SW480) [µM]
CC(=O)O[C@H]1[C@H]2[C@H]([C@@H]3[C@@H](O)C4=C(C)C(=O)[C@@H](O)[C@@H](C)[C@@H]4[C@@]3(C)[C@H]1OC(C)=O)[C@@H](O)C(=O)[C@H]1C[C@@H]3O[C@@H]3[C@H](OC(C)=O)[C@]21C | inactive | inactive | inactive | inactive |  |  |  | 
CC(=O)O[C@H]1C[C@H]2[C@@H](C(=O)[C@H](O)[C@@]3(O)C[C@@H]4O[C@@H]4[C@H](OC(C)=O)[C@]23C)[C@@H]2C(=O)[C@H]3[C@H](C)[C@@H](O)C[C@@H](C)[C@@H]3[C@@]12C | inactive | inactive | inactive | inactive |  |  |  | 
CC(=O)O[C@H]1C[C@H]2[C@H]([C@@H]3[C@@H](O)[C@@H]4[C@H]([C@H](C)C=C5OC(=O)C(C)(O)[C@@]54C)[C@]31C)[C@@H](O)C(=O)[C@H]1C[C@@H]3O[C@H]3[C@H](OC(=O)CC(C)C)[C@@]12C (stereo partly specified) |  |  |  |  | 1.6 | 2.8 | 6.9 | > 10
CC(=O)O[C@H]1C[C@H]2[C@@H](C(=O)[C@H](O)[C@@]3(O)C[C@@H]4O[C@@H]4[C@H](OC(C)=O)[C@]23C)[C@@H]2[C@H](O)[C@@H]3[C@H]([C@H](C)CC(=O)[C@H]3C)[C@]21C | inactive | inactive | inactive | inactive |  |  |  | 
CC(=O)O[C@H]1C(=O)[C@@]2(C)[C@H]([C@H](OC(=O)c3ccccc3)[C@]3(O)C[C@H](OC(=O)[C@H](O)[C@@H](NC(=O)c4ccccc4)c4ccccc4)C(C)=C1C3(C)C)[C@]1(OC(C)=O)CO[C@@H]1C[C@@H]2O [PACLITAXEL] |  |  |  |  | < 0.008 | < 0.008 | < 0.008 | < 0.008
CC(=O)O[C@@H]1[C@H]2[C@H]3[C@H]([C@H](O)[C@H](OC(C)=O)[C@]2(C)[C@H]2[C@H](C)[C@H](OC(C)=O)[C@@H]4OC(=O)C(C)(O)[C@]4(C)[C@H]12)[C@]1(C)[C@H](C[C@@H]2O[C@H]2[C@@H]1OC(C)=O)C(=O)[C@@H]3O (stereo partly specified) |  |  |  |  | > 10 | 7.3 | > 10 | > 10
CC(=O)O[C@H]1[C@H]2[C@H]([C@@H]3[C@H]4OC(C)(O)[C@]5(C)[C@H]4[C@H]([C@H](C)C(=O)[C@H]5O)[C@@]3(C)[C@H]1OC(C)=O)[C@@H](OC(C)=O)C(=O)[C@H]1C[C@@H]3O[C@H]3[C@H](OC(C)=O)[C@]21C (stereo partly specified) |  |  |  |  | > 10 | 7.5 | > 10 | > 10
CC(=O)O[C@@H]1[C@H]2[C@@H]3[C@@H](OC(C)=O)C(=O)[C@@]4(O)C[C@@H]5O[C@H]5[C@H](OC(=O)CC(C)C)[C@]4(C)[C@H]3C[C@H](OC(C)=O)[C@]2(C)[C@@H]2[C@@H]1[C@]1(C)C(=C[C@H]2C)OC(=O)C1(C)O (stereo partly specified) |  |  |  |  | > 10 | 8.3 | > 10 | > 10
CC(=O)O[C@H]1C[C@H]2[C@@H]([C@@H]3O[C@@H]3[C@@]3(O)C[C@@H]4O[C@@H]4[C@H](OC(C)=O)[C@]23C)[C@@H]2C[C@H]3[C@H](CO)CC(=O)[C@@H](C)[C@@H]3[C@@]12C | inactive | inactive | inactive | inactive |  |  |  | 
